The values that follow come from US9126999B2, “Tetrahydropyrazolopyrimidine compounds” (EISAI R&D MANAGEMENT CO., LTD., priority 2012, dated 2015).

One experiment addresses T1, Mouse TLR7 (Mus musculus, UniProt P58681).
T1 construct: endogenous in cells; host or cells: female BALB/c mice, in vivo
T1 sequence (P58681 27-1050): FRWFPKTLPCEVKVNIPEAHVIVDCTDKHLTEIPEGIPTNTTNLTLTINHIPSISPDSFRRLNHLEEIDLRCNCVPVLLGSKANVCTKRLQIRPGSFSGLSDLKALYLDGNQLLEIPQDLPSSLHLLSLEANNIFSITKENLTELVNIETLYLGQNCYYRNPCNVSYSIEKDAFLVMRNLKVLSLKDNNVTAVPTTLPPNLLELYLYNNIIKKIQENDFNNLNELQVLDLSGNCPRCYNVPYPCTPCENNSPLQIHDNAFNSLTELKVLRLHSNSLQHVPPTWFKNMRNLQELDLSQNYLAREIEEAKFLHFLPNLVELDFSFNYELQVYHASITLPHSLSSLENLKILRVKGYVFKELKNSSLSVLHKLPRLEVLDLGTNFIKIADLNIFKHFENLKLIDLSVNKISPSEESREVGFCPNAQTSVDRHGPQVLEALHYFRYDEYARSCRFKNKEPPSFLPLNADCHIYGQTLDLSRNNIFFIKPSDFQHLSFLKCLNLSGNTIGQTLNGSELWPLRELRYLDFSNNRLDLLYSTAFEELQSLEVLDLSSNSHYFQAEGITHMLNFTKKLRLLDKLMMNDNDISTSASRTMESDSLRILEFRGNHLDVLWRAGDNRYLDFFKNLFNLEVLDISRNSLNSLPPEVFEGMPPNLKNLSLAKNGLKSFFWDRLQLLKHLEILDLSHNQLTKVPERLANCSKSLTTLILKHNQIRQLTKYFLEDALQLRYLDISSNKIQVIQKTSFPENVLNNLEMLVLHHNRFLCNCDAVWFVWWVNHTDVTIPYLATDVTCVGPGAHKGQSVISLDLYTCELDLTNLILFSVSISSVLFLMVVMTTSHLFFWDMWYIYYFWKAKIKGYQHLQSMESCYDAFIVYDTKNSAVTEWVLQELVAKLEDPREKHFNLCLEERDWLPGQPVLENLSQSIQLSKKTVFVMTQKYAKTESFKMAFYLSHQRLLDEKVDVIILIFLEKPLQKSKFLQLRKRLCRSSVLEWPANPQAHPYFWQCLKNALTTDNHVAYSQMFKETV
Description: HEK-293 NF-kappaB luciferase reporter assay, CL097 stimulus. The format is cell-based. The following applies: ligand CL097, analyte NFkB-luciferase. The text has this: (§1) In vitro pharmacology: HEK-293 cells (ATCC) were engineered to stably express a NF-kappaB transcription factor inducible E-selectin (ELAM-1) luciferase reporter derived from the plasmid pGL3 (Promega) containing base pairs −2241 bp to −254 bp from the promoter of the human E-selectin gene (Accession No. NM_000450). These cells were then subsequently engineered to stably and individually express human TLR4, TLR7 or TLR9 full-length ORF cDNAs. Human TLR4 cDNA (Accession No. NM_138554) was cloned into pcDNA 3.0 expression vector (Invitrogen). TLR4 transfected cells were also engineered to express human MD-2 co-receptor [MD-2 cDNA (Accession No. NM_015364) was cloned into the pEF-BOS vector] and were supplemented with 10 nM soluble CD14 (R&D Systems) in the media to optimize LPS responsiveness. Human TLR9 cDNA (Accession No. NM_017442) was cloned into the pBluescript II KS vector (Agilent). Human TLR7 cDNA (Accession No. NM_016562) was obtained from OriGene. HEK-293 cells stably expressing human TLR8 (Accession No. NM_138636) or mouse TLR7 (Accession No. NM_133211) were purchased from InvivoGen and were then stably transfected with pNiFty2(NF-kappaB)-luciferase reporter plasmid (InvivoGen). Each cell type was plated in Dulbecco's modified Eagle's medium (DMEM) containing 10% fetal bovine serum (FBS) at a density of 2.22×10^5 cells/ml into a 384-well plate and incubated for 2 days at 37° C., 5% CO2. Varying concentrations of antagonist compounds were then added. Cells were then incubated for another 30 minutes before adding the appropriate TLR agonist as follows (final concentrations indicated): lipopolysaccharide (LPS; Sigma) at 10 ng/ml for TLR4, CL097 (InvivoGen) at 3 ug/ml for human TLR7 and TLR8 and mouse TLR7, and CpG-2006-2A [sequence: […] (SEQ ID NO: 1) with phosphorothioate backbone, synthesized by Sigma-Aldrich] at 0.6 uM for TLR9.
(In general: Reporter assays use an easily measured gene product as a stand-in for the process of interest.)

A further experiment concerns the target T2, Human TLR7 (Homo sapiens, UniProt Q9NYK1).
T2 construct: engineered to stably and individually express human TLR4, TLR7 or TLR9 full-length ORF cDNAs; host or cells: HEK-293 (ATCC) with ELAM-1 NF-kappaB luciferase reporter
T2 sequence (Q9NYK1 27-1049): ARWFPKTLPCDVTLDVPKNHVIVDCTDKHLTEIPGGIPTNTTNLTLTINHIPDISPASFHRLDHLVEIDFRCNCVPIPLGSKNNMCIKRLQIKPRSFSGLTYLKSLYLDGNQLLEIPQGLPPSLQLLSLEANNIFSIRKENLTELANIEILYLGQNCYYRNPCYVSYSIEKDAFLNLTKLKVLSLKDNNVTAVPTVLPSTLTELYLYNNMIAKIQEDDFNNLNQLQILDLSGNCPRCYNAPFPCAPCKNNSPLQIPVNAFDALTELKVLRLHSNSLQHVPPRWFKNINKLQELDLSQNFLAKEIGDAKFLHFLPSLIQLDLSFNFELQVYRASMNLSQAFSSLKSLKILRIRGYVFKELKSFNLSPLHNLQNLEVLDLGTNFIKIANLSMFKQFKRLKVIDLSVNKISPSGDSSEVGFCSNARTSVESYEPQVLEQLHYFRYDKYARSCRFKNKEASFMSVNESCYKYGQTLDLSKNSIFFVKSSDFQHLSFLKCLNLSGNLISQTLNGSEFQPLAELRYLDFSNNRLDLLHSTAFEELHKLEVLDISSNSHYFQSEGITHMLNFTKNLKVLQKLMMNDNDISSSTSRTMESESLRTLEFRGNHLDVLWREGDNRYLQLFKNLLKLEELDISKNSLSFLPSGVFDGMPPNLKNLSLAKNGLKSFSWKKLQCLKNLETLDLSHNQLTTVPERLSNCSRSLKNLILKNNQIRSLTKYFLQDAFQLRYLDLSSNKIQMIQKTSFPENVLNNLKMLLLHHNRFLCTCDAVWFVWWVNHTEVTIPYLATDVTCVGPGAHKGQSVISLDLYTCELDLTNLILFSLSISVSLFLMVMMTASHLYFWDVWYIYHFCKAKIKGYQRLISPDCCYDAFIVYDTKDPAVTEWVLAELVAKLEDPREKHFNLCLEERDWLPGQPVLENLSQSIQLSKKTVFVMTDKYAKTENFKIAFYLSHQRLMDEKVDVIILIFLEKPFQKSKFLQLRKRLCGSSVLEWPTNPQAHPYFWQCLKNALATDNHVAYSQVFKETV
Described as above. The following applies: ligand CL097, analyte NFkB-luciferase. The experiment is classed as cell-based.
Excerpt: as §1

The term IC50 denotes the point on the concentration scale where inhibition reaches its midpoint.

Regarding `COc1ccc([C@@H]2C[C@H](C(F)(F)F)n3nc(-c4ccc(C(=O)N5CCNCC5)cc4)cc3N2)cc1OC` [ER-892887, (4-((5S,7R)-5-(3,4-dimethoxyphenyl)-7-(trifluoromethyl)-4,5,6,7-tetrahydropyrazolo[1,5-a]pyrimidin-2-yl)phenyl)(piperazin-1-yl)methanone], the figures for the IC50 at Mouse TLR7 and against Human TLR7 were 0.276 µM and 0.01 µM, respectively.
